ChEMBL document CHEMBL3885861, “Open TG-GATES”

Species: Rattus norvegicus
Test: Open TG-GATES - Regimen: Single
Assay type: toxicity, organism-based, Sprague-Dawley
Parameters: regimen Single, gender Male, age 6 weeks
Conditions: in vivo, iv, 12 mg/kg, route intravenous injection, dose level Low; for APTT / Bas / Eos / Fbg / Hb / Ht / Lym / MCH / MCHC / MCV / Mono / Neu / PT / Plat / RBC / Ret / WBC: tissue Blood; for KIDNEY_L / KIDNEY_R / KIDNEY_TOTAL: tissue Kidney; for LIVER: tissue Liver; for A/G / ALP / ALT / AST / BUN / CRE / Ca / Cl / DBIL / GLC / IP / K / LDH / Na / PL / RALB / TBIL / TC / TG / TP / gamma-GTP: tissue Plasma

Question: Which results are given for CN(C)c1ncnc2c1ncn2[C@@H]1O[C@H](CO)[C@@H](N)[C@H]1O [PUROMYCIN AMINONUCLEOSIDE]?
Answer: TERMINAL_BW (3 h): 215.3 g; APTT (3 h): 22.9 s; Bas (3 h): 0%; Eos (3 h): 0.8%; Fbg (3 h): 276 mg/dL; Hb (3 h): 13.1 g/dL; Ht (3 h): 38.5%; Lym (3 h): 69.6%; MCH (3 h): 21.4 pg; MCHC (3 h): 33.9%; MCV (3 h): 63.1 fL; Mono (3 h): 4%; Neu (3 h): 24.4%; PT (3 h): 16 s; Plat (3 h): 119.9 x10_4/uL; RBC (3 h): 611.4 x10_4/ul; Ret (3 h): 6.4%; WBC (3 h): 112.8 x10_2/uL; KIDNEY_L (3 h): 1 g; KIDNEY_R (3 h): 1 g; KIDNEY_TOTAL (3 h): 1.9 g; LIVER (3 h): 10 g; A/G (3 h): 1.3; ALP (3 h): 1670.4 IU/L; ALT (3 h): 45.2 IU/L; AST (3 h): 76.6 IU/L; BUN (3 h): 13.6 mg/dL; CRE (3 h): 0.2 mg/dL; Ca (3 h): 11 mg/dL; Cl (3 h): 105.6 meq/L; DBIL (3 h): 0 mg/dL; GLC (3 h): 181.6 mg/dL; IP (3 h): 7.8 mg/dL; K (3 h): 4.2 meq/L; LDH (3 h): 180.2 IU/L; Na (3 h): 141.4 meq/L; PL (3 h): 143.4 mg/dL; RALB (3 h): 3 g/dL; TBIL (3 h): 0.02 mg/dL; TC (3 h): 73.2 mg/dL; TG (3 h): 72.4 mg/dL; TP (3 h): 5.4 g/dL; gamma-GTP (3 h): 1 IU/L; TERMINAL_BW (6 h): 208.1 g; APTT (6 h): 22.9 s; Bas (6 h): 0%; Eos (6 h): 0.8%; Fbg (6 h): 316.4 mg/dL; Hb (6 h): 13.1 g/dL; Ht (6 h): 39.2%; Lym (6 h): 72.8%; MCH (6 h): 20.5 pg; MCHC (6 h): 33.5%; MCV (6 h): 61 fL; Mono (6 h): 3.2%; Neu (6 h): 22.2%; PT (6 h): 15.9 s; Plat (6 h): 119.1 x10_4/uL; RBC (6 h): 643 x10_4/ul; Ret (6 h): 6.5%; WBC (6 h): 104.4 x10_2/uL; KIDNEY_L (6 h): 0.9 g; KIDNEY_R (6 h): 0.9 g; KIDNEY_TOTAL (6 h): 1.8 g; LIVER (6 h): 8.9 g; A/G (6 h): 1.3; ALP (6 h): 1246 IU/L; ALT (6 h): 37.4 IU/L; AST (6 h): 71.2 IU/L; BUN (6 h): 11.6 mg/dL; CRE (6 h): 0.1 mg/dL; Ca (6 h): 11.1 mg/dL; Cl (6 h): 105.6 meq/L; DBIL (6 h): 0 mg/dL; GLC (6 h): 182.4 mg/dL; IP (6 h): 9 mg/dL; K (6 h): 4.3 meq/L; LDH (6 h): 153.4 IU/L; Na (6 h): 140.4 meq/L; PL (6 h): 136.8 mg/dL; RALB (6 h): 3 g/dL; TBIL (6 h): 0.026 mg/dL; TC (6 h): 71.4 mg/dL; TG (6 h): 83 mg/dL; TP (6 h): 5.5 g/dL; gamma-GTP (6 h): 1.2 IU/L; TERMINAL_BW (9 h): 212.5 g; APTT (9 h): 21.5 s; Bas (9 h): 0%; Eos (9 h): 1%; Fbg (9 h): 306.4 mg/dL; Hb (9 h): 12.5 g/dL; Ht (9 h): 37.4%; Lym (9 h): 75%; MCH (9 h): 20.6 pg; MCHC (9 h): 33.5%; MCV (9 h): 61.7 fL; Mono (9 h): 2.8%; Neu (9 h): 20.6%; PT (9 h): 16.2 s; Plat (9 h): 130.4 x10_4/uL; RBC (9 h): 607.8 x10_4/ul; Ret (9 h): 7.7%; WBC (9 h): 98.3 x10_2/uL; KIDNEY_L (9 h): 1 g; KIDNEY_R (9 h): 1 g; KIDNEY_TOTAL (9 h): 1.9 g; LIVER (9 h): 8.5 g; A/G (9 h): 1.3; ALP (9 h): 1182.4 IU/L; ALT (9 h): 35.4 IU/L; AST (9 h): 69.6 IU/L; BUN (9 h): 10.6 mg/dL; CRE (9 h): 0.2 mg/dL; Ca (9 h): 11.1 mg/dL; Cl (9 h): 105.4 meq/L; DBIL (9 h): 0 mg/dL; GLC (9 h): 174 mg/dL; IP (9 h): 9.9 mg/dL; K (9 h): 4.3 meq/L; LDH (9 h): 129.8 IU/L; Na (9 h): 141.6 meq/L; PL (9 h): 132.6 mg/dL; RALB (9 h): 3 g/dL; TBIL (9 h): 0.03 mg/dL; TC (9 h): 71.2 mg/dL; TG (9 h): 81.4 mg/dL; TP (9 h): 5.4 g/dL; gamma-GTP (9 h): 1.2 IU/L; TERMINAL_BW (24 h): 220.5 g; APTT (24 h): 21.8 s; Bas (24 h): 0%; Eos (24 h): 1%; Fbg (24 h): 309.4 mg/dL; Hb (24 h): 13 g/dL; Ht (24 h): 37.8%; Lym (24 h): 82%; MCH (24 h): 20.8 pg; MCHC (24 h): 34.4%; MCV (24 h): 60.5 fL; Mono (24 h): 2.6%; Neu (24 h): 13.6%; PT (24 h): 15.9 s; Plat (24 h): 114.8 x10_4/uL; RBC (24 h): 627.2 x10_4/ul; Ret (24 h): 6.2%; WBC (24 h): 91 x10_2/uL; KIDNEY_L (24 h): 1 g; KIDNEY_R (24 h): 1 g; KIDNEY_TOTAL (24 h): 2 g; LIVER (24 h): 9.9 g; A/G (24 h): 1.2; ALP (24 h): 1421.6 IU/L; ALT (24 h): 43 IU/L; AST (24 h): 72.2 IU/L; BUN (24 h): 17.8 mg/dL; CRE (24 h): 0.2 mg/dL; Ca (24 h): 11.1 mg/dL; Cl (24 h): 104.4 meq/L; DBIL (24 h): 0 mg/dL; GLC (24 h): 188.6 mg/dL; IP (24 h): 8.6 mg/dL; K (24 h): 4.3 meq/L; LDH (24 h): 156.6 IU/L; Na (24 h): 141.4 meq/L; PL (24 h): 153 mg/dL; RALB (24 h): 3.1 g/dL; TBIL (24 h): 0.018 mg/dL; TC (24 h): 75.8 mg/dL; TG (24 h): 119.4 mg/dL; TP (24 h): 5.5 g/dL; gamma-GTP (24 h): 1.2 IU/L
